How the values were obtained:
[1] = Molar enthalpy of transition or fusion; conditions: Crystal; DSC
[2] = for mass density / viscosity: 101.33 kPa; for mass density / surface tension liquid-gas / viscosity: Liquid; for mass density: Vibrating tube method; for surface tension liquid-gas: Ring tensiometer
[3] = refractive index (Na D-line) (dimensionless); conditions: 313 K; 101.33 kPa; Liquid; Standard Abbe refractometry

CCCCCC[N+]12CCN(CC1)CC2.O=S(=O)([N-]S(=O)(=O)C(F)(F)F)C(F)(F)F
Conditions | Molar enthalpy of transition or fusion [kcal/mol] | refractive index
[1] | 2.63 | –
[3] | – | 1.4379

[2]
Conditions | mass density [kg/m3] | surface tension liquid-gas [mN/m] | viscosity [mPa·s]
313.15 K | 1355.15 | 35.62 | –
318.15 K | 1350.93 | 35.33 | 190.8
323.15 K | 1346.72 | 35.05 | 138.1
328.15 K | 1342.51 | 34.83 | 107
333.15 K | 1338.29 | 34.51 | 87.6

[2], DTA
Conditions | Glass transition temperature [°C] | Normal melting temperature [°C]
Crystal | – | 36
Glass | -51 | –

From the NIST ThermoML archive (doi:10.1021/je400252p)
